{
  "source": "ChEMBL document CHEMBL1201862",
  "about": "“PubChem BioAssay data set” (2004)",
  "key": {"[1]": {"assay": "miR-122 activators in hepatoma reporter cells, dose response, cell-based, Huh7 psiCHECK-miR122, Renilla luciferase, cherry-picked (AID 651956);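 note: huh7 hepatoma cells stably carrying a psiCHECK-2 miR-122 sensor plasmid; renilla luciferase signal reporting endogenous miR-122 activity after 48 h compound exposure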", "type": "functional"}, "[2]": {"assay": "HEK293T cytotoxicity, dose response, cytotoxicity control for miR-122 modulator project, cell-based, inhibitor set, cherry-pick, set 2 (AID 720697)", "type": "functional"}, "[3]": {"assay": "HEK293T cytotoxicity, dose response, cytotoxicity control for miR-122 modulator project, cell-based, activator set, cherry-pick (AID 720690);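 note: HEK293T human cells scored for general mammalian cytotoxicity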", "type": "functional"}, "Galanin receptor type 3": {"molecular_target": "Galanin receptor type 3 (Homo sapiens, UniProt O60755)", "sequence (O60755 whole entry)": "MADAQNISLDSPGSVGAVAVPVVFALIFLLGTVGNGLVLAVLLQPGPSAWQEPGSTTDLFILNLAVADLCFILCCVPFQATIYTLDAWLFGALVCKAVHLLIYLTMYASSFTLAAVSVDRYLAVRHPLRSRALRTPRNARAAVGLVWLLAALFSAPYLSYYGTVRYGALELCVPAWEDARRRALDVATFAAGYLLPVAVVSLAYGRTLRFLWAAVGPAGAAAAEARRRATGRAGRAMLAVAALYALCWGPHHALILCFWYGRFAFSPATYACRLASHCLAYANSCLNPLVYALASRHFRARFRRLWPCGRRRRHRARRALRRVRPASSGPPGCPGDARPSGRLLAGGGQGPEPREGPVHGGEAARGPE", "assay": "Fluorescence-based cell-based primary high throughput dose response assay to identify antagonists of the Galanin Receptor 3 (GalR3).", "type": "functional"}, "cells": {"assay": "cells", "type": "functional, cell-based", "conditions": "HEK-CNG"}, "[4]": {"molecular_target": "Metabotropic glutamate receptor 3 (Rattus norvegicus, UniProt P31422)", "sequence (P31422 whole entry)": "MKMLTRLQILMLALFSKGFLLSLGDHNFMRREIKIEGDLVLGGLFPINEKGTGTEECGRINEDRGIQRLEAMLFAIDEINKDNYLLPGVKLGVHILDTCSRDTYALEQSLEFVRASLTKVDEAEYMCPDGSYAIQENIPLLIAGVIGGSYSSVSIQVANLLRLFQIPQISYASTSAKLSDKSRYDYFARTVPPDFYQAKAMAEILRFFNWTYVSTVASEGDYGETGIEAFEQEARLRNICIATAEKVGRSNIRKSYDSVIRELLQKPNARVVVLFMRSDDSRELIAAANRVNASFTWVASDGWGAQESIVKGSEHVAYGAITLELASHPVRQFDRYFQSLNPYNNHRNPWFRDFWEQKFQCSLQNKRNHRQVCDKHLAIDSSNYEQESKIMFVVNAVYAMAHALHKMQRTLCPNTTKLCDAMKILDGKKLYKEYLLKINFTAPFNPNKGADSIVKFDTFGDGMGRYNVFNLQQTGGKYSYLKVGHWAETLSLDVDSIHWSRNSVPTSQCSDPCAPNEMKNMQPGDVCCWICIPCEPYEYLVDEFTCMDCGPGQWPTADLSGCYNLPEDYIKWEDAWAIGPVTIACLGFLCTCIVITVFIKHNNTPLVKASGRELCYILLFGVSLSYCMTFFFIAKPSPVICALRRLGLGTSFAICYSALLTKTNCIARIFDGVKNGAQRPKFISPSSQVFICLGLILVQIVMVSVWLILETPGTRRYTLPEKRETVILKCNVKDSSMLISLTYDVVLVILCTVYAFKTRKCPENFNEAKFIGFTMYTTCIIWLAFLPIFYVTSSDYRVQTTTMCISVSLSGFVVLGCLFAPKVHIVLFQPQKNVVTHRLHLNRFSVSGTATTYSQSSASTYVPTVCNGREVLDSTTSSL", "assay": "mGlu3 negative allosteric modulator potency, dose response, HEK/GIRK cells, thallium flux, rat (AID 651839)", "type": "functional"}, "[5]": {"assay": "HEK293 cell cytotoxicity, dose response, cytotoxicity control, ATP luminescence, dry powder, Set6 (AID 743142)", "type": "functional, cell-based"}, "[6]": {"assay": "A549 cell cytotoxicity, dose response, cytotoxicity control, CellTiter-Glo luminescence, dry powder, set 3 (AID 743146)", "type": "functional, cell-based"}, "[7]": {"assay": "MITF Orthogonal Assay: SK-MEL-5 CTG Assay Measured in Cell-Based System Using Plate Reader - 2084-02_Inhibitor_Dose_DryPowder_Activity_Set7.", "type": "functional"}, "[8]": {"assay": "MITF: Counter assay: A375 proliferation Measured in Cell-Based System Using Plate Reader - 2084-03_Inhibitor_Dose_DryPowder_Activity_Set8.", "type": "functional", "conditions": "A-375"}, "[9]": {"assay": "TRPM1 promoter luciferase reporter signal decrease, dose response, MITF inhibitor project, cell-based, SK-MEL-5, dry powder, set 8 (AID 624430)", "type": "functional"}, "[10]": {"molecular_target": "Protein disulfide-isomerase (Homo sapiens, UniProt P07237)", "sequence (P07237 whole entry)": "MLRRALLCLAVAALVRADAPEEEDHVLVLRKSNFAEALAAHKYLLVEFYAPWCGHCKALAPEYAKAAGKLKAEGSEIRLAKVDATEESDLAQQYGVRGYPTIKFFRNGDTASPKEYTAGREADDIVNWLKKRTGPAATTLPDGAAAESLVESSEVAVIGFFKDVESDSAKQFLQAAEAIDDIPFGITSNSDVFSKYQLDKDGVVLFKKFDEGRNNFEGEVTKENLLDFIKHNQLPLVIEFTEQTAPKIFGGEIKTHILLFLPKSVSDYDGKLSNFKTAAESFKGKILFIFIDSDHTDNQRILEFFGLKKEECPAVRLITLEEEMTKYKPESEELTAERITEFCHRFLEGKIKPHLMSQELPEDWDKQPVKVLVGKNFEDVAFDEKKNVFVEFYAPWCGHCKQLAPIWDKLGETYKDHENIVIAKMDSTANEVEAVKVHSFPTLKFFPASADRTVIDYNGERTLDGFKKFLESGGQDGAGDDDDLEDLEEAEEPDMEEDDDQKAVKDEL", "assay": "PDI inhibitors, insulin turbidity readout, confirmation, biochemical, dry powder samples, set 2 (AID 652146)"}, "[11]": {"molecular_target": "T1, Rac GTPase-activating protein 1 (Homo sapiens, UniProt Q9H0H5)", "T1 sequence (Q9H0H5 whole entry)": "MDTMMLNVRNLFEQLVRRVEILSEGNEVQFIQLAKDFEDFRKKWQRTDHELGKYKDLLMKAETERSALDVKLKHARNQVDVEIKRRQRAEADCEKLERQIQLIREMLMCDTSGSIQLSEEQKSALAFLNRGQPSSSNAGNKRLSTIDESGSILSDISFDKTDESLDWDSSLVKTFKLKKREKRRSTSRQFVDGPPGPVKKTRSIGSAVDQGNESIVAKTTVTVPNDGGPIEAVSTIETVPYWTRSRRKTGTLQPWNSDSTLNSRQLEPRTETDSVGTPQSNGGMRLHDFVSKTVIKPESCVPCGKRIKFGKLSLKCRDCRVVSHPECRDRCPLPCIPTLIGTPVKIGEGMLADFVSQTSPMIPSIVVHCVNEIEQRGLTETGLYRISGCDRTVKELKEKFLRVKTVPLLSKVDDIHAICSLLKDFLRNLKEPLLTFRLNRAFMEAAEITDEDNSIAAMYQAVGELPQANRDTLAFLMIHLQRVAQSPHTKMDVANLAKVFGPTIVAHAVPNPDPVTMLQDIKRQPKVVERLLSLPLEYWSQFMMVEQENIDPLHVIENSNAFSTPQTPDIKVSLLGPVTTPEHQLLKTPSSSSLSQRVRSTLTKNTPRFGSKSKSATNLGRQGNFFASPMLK", "assay": "MgcRacGAP GTPase-activating activity inhibitors, confirmation, biochemical, ADP Hunter fluorescence, primary and confirmatory (AID 624330)", "type": "functional"}, "[12]": {"assay": "CFTR ΔF508 corrector activity in bronchial cells, dose response, human bronchial epithelial cells, plate reader, cherry-pick, two tests (AID 743267)", "type": "functional, cell-based"}, "[13]": {"assay": "THP-1 cell cytotoxicity, dose response, cytotoxicity control for Vif-APOBEC3G degradation inhibitor project, THP-1 cells (AID 1117359)", "type": "functional", "conditions": "Human immunodeficiency virus 1, THP-1"}},
  "note": "Calls of active or inactive are those of the source.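 Throughout, for EC50: target is galanin receptor GalR3 read with a cAMP biosensor in HEK293 cells.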",
  "data": [
    {"compound": "C[C@H](CO)N1C[C@H](C)[C@H](CN(C)CC2CCCCC2)Oc2ccc(NC(=O)Nc3ccc(C(F)(F)F)cc3)cc2C1=O", "values": [
      {"measurement": "AC50", "setting": "[1]", "result": "31.5 µM (active)"},
      {"measurement": "AC50", "setting": "[2]", "result": "15.1 µM (active)"},
      {"measurement": "AC50", "setting": "[3]", "result": "17.1 µM (active)"}
    ]},
    {"compound": "CC1(CSc2ccccc2)CC(=O)N1", "note": "(stereo not given)", "values": [
      {"measurement": "IC50", "setting": "Galanin receptor type 3", "result": "> 29.9 µM (inactive)"},
      {"measurement": "EC50", "setting": "cells", "result": "> 29.9 µM (inactive)"}
    ]},
    {"compound": "COc1ccc(C#Cc2ccc(C(=O)N3CCC[C@@H](CO)C3)cc2)c(F)c1", "values": [
      {"measurement": "IC50", "setting": "[4]", "result": 4.92, "unit": "µM"}
    ]},
    {"compound": "O=C(CCNC(=O)c1cccc(Cl)c1)N[C@@H]1CCCc2ccccc21", "values": [
      {"measurement": "AC50", "setting": "[5]", "result": "9.96 µM (active)"},
      {"measurement": "AC50", "setting": "[6]", "result": "> 52 µM (inactive)"}
    ]},
    {"compound": "CCN1CCN(C2=C(Nc3cccc(Cl)c3)C(=O)c3ccccc3C2=O)CC1", "values": [
      {"measurement": "AC50", "setting": "[7]", "result": "10.1 µM (active)"},
      {"measurement": "AC50", "setting": "[8]", "result": "31.7 µM (active)"},
      {"measurement": "AC50", "setting": "[9]", "result": "2.94 µM (active)"}
    ]},
    {"compound": "CCOC(=O)C1(CCOC)CCN(Cc2ccc(O)c(Cl)c2)CC1", "values": [
      {"measurement": "AC50", "setting": "[10]", "result": "> 30 µM (inactive)"}
    ]},
    {"compound": "C=CC/N=c1\\scc(C)n1/N=C/c1ccc(O)c(O)c1", "values": [
      {"measurement": "IC50", "setting": "[11]", "result": "17.4 µM (active)"},
      {"measurement": "AC50", "setting": "[12]", "result": "50 µM (active)"},
      {"measurement": "CC50", "setting": "[13]", "result": "19.8 µM (active)"}
    ]}
  ]
}
